Experiments:
[1] = system: Mycosphaerella arachidis (Cercospora arachidicola); assay: Mycosphaerella arachidis (Cercospora arachidicola) / liquid culture (early leaf spot); format: cell-based; conditions: 200 ppm in the formulation, PDB potato dextrose broth, 24° C., 4-5 days after application, vs untreated, read-out: disease control (inhibition of growth determined photometrically)
Method: (§1) Mycosphaerella arachidis (Cercospora arachidicola)/Liquid Culture (Early Leaf Soot) Conidia of the fungus from cryogenic storage are directly mixed into nutrient broth (PDB potato dextrose broth). After placing a (DMSO) solution of test compound into a microtiter plate (96-well format), the nutrient broth containing the fungal spores is added. The test plates are incubated at 24° C. and the inhibition of growth is determined photometrically 4-5 days after application.

[2] = system: Mycosphaerella graminicola (Septoria tritici); assay: Mycosphaerella graminicola (Septoria tritici) / liquid culture (Septoria blotch); format: cell-based; conditions: Zymoseptoria tritici; 200 ppm in the formulation; PDB potato dextrose broth, 24° C., 4 to 5 days after application, vs untreated; read-out: disease control (inhibition of growth determined photometrically)
Method: as §1, with “graminicola (Septoria tritici)/Liquid” for “arachidis (Cercospora arachidicola)/Liquid”, “(Septoria Blotch)” for “(Early Leaf Soot)”, “4 to 5” for “4-5”

[3] = system: Monographella nivalis (Microdochium nivale); assay: Monographella nivalis (Microdochium nivale) / liquid culture (foot rot cereals); format: cell-based; conditions: 200 ppm in the formulation, PDB potato dextrose broth, 24° C., 4-5 days after application, vs untreated, read-out: disease control (inhibition of growth determined photometrically)
Method: as §1, with “Monographella nivalis (Microdochium nivale)/liquid culture (foot rot cereals)” for “Mycosphaerella arachidis (Cercospora arachidicola)/Liquid Culture (Early Leaf Soot)”

[4] = system: Botryotinia fuckeliana (Botrytis cinerea); assay: Botryotinia fuckeliana (Botrytis cinerea) / liquid culture (gray mould); format: cell-based; conditions: 200 ppm in the formulation, Vogels broth, 24° C., 3-4 days after application, vs untreated, read-out: disease control (inhibition of growth determined photometrically)
Method: as §1, with “Botryotinia fuckeliana (Botrytis cinerea)/Liquid” for “Mycosphaerella arachidis (Cercospora arachidicola)/Liquid”, “(Gray Mould)” for “(Early Leaf Soot)”, “(Vogels” for “(PDB potato dextrose”, “3-4” for “4-5”

Pythium ultimum = Pythium ultimum / liquid culture (seedling damping off); format: cell-based; conditions: Globisporangium ultimum; 200 ppm in the formulation; PDB potato dextrose broth, 24° C., 2-3 days after application, vs untreated; read-out: disease control (inhibition of growth determined photometrically)
Method: Pythium ultimum/Liquid Culture (Seedling Damping Off) Mycelia fragments and oospores of a newly grown liquid culture of the fungus are directly mixed into nutrient broth (PDB potato dextrose broth). After placing a (DMSO) solution of test compound into a microtiter plate (96-well format), the nutrient broth containing the fungal mycelia/spore mixture is added. The test plates are incubated at 24° C. and the inhibition of growth is determined photometrically 2-3 days after application.

Plasmopara viticola = format: in vivo; conditions: 200 ppm in the formulation; grape vine leaf disks, inoculated 1 day after application, assessed 6 to 8 days after application, vs untreated
[5] = system: Glomerella lagenarium (Colletotrichum lagenarium); assay: Glomerella lagenarium (Colletotrichum lagenarium) / liquid culture (anthracnose); format: cell-based; conditions: Colletotrichum orbiculare; 200 ppm in the formulation; PDB potato dextrose broth, 24° C., 3 to 4 days after application, vs untreated; read-out: disease control (inhibition of growth measured photometrically)
Method: as §1, with “Glomerella lagenarium (Colletotrichum lagenarium)/Liquid” for “Mycosphaerella arachidis (Cercospora arachidicola)/Liquid”, “(Anthracnose)” for “(Early Leaf Soot)”, “measured” for “determined”, “3 to 4” for “4-5”

Question: For `CC(OC(=O)[C@H](C)NC(=O)c1nccc(NC=O)c1O)C(c1ccc(F)cc1)c1ccc(F)cc1` (stereo partly drawn) [Compound I.a.42, [2,2-bis(4-fluorophenyl)-1-methyl-ethyl] (2S)-2-[(4-formamido-3-hydroxy-pyridine-2-carbonyl)amino] propanoate], which inhibition at 200 ppm [1] is on record?
Answer: ≥ 80%

Question: What about the inhibition at 200 ppm [2] of the same compound?
Answer: ≥ 80%

Question: What about the inhibition at 200 ppm [3] of the same compound?
Answer: ≥ 80%

Question: And the inhibition at 200 ppm [4]?
Answer: ≥ 80%

Question: And the inhibition at 200 ppm (Pythium ultimum)?
Answer: ≥ 80%

Question: What about the disease control (Plasmopara viticola) of the same compound?
Answer: at least 80%

Question: What about the melting point of the same compound?
Answer: 101 to 113 °C

Question: With `CC(C)C(=O)OCOc1c(NC=O)ccnc1C(=O)N[C@@H](C)C(=O)OC(C)C(c1ccccc1)c1ccccc1` (stereo partly drawn) [Compound I.k.33, [4-formamido-2-[[(1S)-1-methyl-2-(1-methyl-2,2-diphenyl-ethoxy)-2-oxo-ethyl]carbamoyl]-3-pyridyl]oxymethyl 2-methylpropanoate] as the compound, how does the inhibition at 200 ppm [1] read?
Answer: ≥ 80%

Question: And the inhibition at 200 ppm [5]?
Answer: ≥ 80%

Question: And the inhibition at 200 ppm [2]?
Answer: ≥ 80%

Question: And the inhibition at 200 ppm [3]?
Answer: ≥ 80%

Question: And the inhibition at 200 ppm [4]?
Answer: ≥ 80%

Question: For `CC(C)C(=O)OCOc1c(NC=O)ccnc1C(=O)N[C@@H](C)C(=O)OC(C)C(c1ccc(F)cc1)c1ccc(F)cc1` (stereo partly drawn) [Compound I.k.42, [2-[[(1S)-2-[2,2-bis(4-fluorophenyl)-1-methyl-ethoxy]-1-methyl-2-oxo-ethyl]carbamoyl]-4-formamido-3-pyridyl]oxymethyl 2-methylpropanoate], which inhibition at 200 ppm [1] is on record?
Answer: ≥ 80%

Question: And the inhibition at 200 ppm [5]?
Answer: ≥ 80%

Question: And the inhibition at 200 ppm [2]?
Answer: ≥ 80%

Question: What about the inhibition at 200 ppm [3] of the same compound?
Answer: ≥ 80%

Question: What about the inhibition at 200 ppm [4] of the same compound?
Answer: ≥ 80%

Question: Which inhibition at 200 ppm [1] does the source give for `CC(OC(=O)[C@H](C)NC(=O)c1nccc(N)c1O)C(c1ccc(F)cc1)c1ccc(F)cc1` (stereo partly drawn) [I.w.42, [2,2-bis(4-fluorophenyl)-1-methyl-ethyl] (2S)-2-[(4-amino-3-hydroxy-pyridine-2-carbonyl)amino]propanoate] here?
Answer: ≥ 80%

Question: What about the inhibition at 200 ppm [5] of the same compound?
Answer: ≥ 80%

Question: And the inhibition at 200 ppm [2]?
Answer: ≥ 80%

Question: And the inhibition at 200 ppm [3]?
Answer: ≥ 80%

Question: What about the inhibition at 200 ppm [4] of the same compound?
Answer: ≥ 80%

Question: With `CC(C)C(=O)OCOc1c(N)ccnc1C(=O)N[C@@H](C)C(=O)OC(C)C(c1ccccc1)c1ccccc1` (stereo partly drawn) [I.y.33, [4-amino-2-[[(1S)-1-methyl-2-(1-methyl-2,2-diphenyl-ethoxy)-2-oxo-ethyl]carbamoyl]-3-pyridyl] oxymethyl 2-methylpropanoate] as the compound, how does the inhibition at 200 ppm [1] read?
Answer: ≥ 80%

Question: And the inhibition at 200 ppm [2]?
Answer: ≥ 80%

Question: What about the inhibition at 200 ppm [3] of the same compound?
Answer: ≥ 80%

Question: And the inhibition at 200 ppm [4]?
Answer: ≥ 80%

Question: What does the source list for `CC(C)C(=O)OCOc1c(N)ccnc1C(=O)N[C@@H](C)C(=O)OC(C)C(c1ccc(F)cc1)c1ccc(F)cc1` (stereo partly drawn) [I.y.42, [4-amino-2-[[(1S)-2-[2,2-bis(4-fluorophenyl)-1-methyl-ethoxy]-1-methyl-2-oxo-ethyl]carbamoyl]-3-pyridyl]oxymethyl 2-methylpropanoate]?
Answer: inhibition at 200 ppm [1]: ≥ 80%; inhibition at 200 ppm [2]: ≥ 80%; inhibition at 200 ppm [3]: ≥ 80%; inhibition at 200 ppm [4]: ≥ 80%

Source: patent US20220264877A1, “MICROBIOCIDAL PICOLINAMIDE DERIVATIVES” (SYNGENTA CROP PROTECTION AG, priority 2019, published 2022)
